# Reference: patent US11945812B2, “Annulated 2-amino-3-cyano thiophenes and derivatives for the treatment of cancer” (Boehringer Ingelheim International GmbH, priority 2020, dated 2024)
# Where two headings read alike, the source gives them in different places.
# Tests used:
# [1] = biological target: T1, KRAS G12C::SOS1 protein-protein interaction (Homo sapiens, UniProt P01116, C118S/C51S/C80L/G12C); test: KRAS::SOS1 AlphaScreen binding assay; conditions: KRAS G12C::SOS1 AlphaScreen
# T1 construct: His6 (N); host or cells: E. coli
# T1 sequence (P01116 1-169 isoform P01116-2 G12C/C51S/C80L/C118S): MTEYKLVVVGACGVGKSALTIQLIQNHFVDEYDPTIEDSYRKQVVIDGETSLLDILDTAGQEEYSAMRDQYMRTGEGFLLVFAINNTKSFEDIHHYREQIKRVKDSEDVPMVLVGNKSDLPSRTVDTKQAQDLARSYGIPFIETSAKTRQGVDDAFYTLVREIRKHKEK
# Excerpt: KRAS::SOS1 AlphaScreen Binding Assay
# Reagents: • GST-tagged SOS1 (564_1049_GST_TEV_ECO) produced in-house • GST-TEV-SOS1 (564-1049) is purchased from Viva Biotech Ltd. • The expression construct of KRAS G12C (amino acids 1-169 of reference sequence P01116-2 (uniprot), with additional mutations: C51S, C80L, and C118S) containing a C-terminal avi-tag was obtained by gene synthesis (GeneArt, Thermo Fisher) in donor vector (pDONR-221) and transferred by recombinant cloning into pDEST17 vector bearing an N-terminal His6-tag. The protein was expressed in E. coli and the purified protein was biotinylated with the E. coli biotin ligase (BirA) before usage. • GDP (Sigma Cat No G7127) • AlphaLISA Glutathione Acceptor Beads (PerkinElmer, Cat No AL109) • AlphaScreen Streptavidin Donor Beads (PerkinElmer Cat No 6760002) • Assay plates: Proxiplate-384 PLUS, white (PerkinElmer, Cat No 6008289)
# Assay Buffer: • 1×PBS • 0.1% BSA • 0.05% Tween 20
# 7.5 nM (final assay concentration) KRAS G12C, 10 μM (final assay concentration) GDP and 5 nM (final assay concentration) GST-SOS1 are mixed in assay buffer prior to use and kept at room temperature.
# AlphaLISA Glutathione Acceptor Beads and AlphaScreen Streptavidin Donor Beads are mixed in assay buffer at a concentration of 10 μg/mL (final assay concentration) each prior to use and kept at room temperature.
# Compounds are diluted to a final start concentration of 100 μM and are tested in duplicate. Assay-ready plates (ARPs) are generated using an Access Labcyte Workstation with a Labcyte Echo 550 or 555 accoustic dispenser. For compound a start concentration of 100 μM, 150 nL of compound solution is transferred per well in 11 concentrations in duplicate with serial 1:5 dilutions.
# The assay is run using a fully automated robotic system in a darkened room below 100 Lux. 10 μL of KRAS::SOS1 GDP mix is added into columns 1-24 to the 150 nL of compound solution (final dilution in the assay 1:100, final DMSO concentration 1%).
# After 30 minutes incubation time 5 μL of bead mix is added into columns 1-23. Plates are kept at room temperature in a darkened incubator. After further 60 minutes incubation, the signal is measured using a PerkinElmer Envision HTS Multilabel Reader using the AlphaScreen specifications from PerkinElmer. Each plate contains the following controls: • diluted DMSO+KRAS::SOS1 GDP mix+bead mix • diluted DMSO+KRAS::SOS1 GDP mix
# IC50 values are calculated and analyzed using a 4 parametric logistic model.
# Tables of example compounds disclosed herein contain IC50 values determined using the above assay.
# [2] = test system: ERK phosphorylation in NCI-H358_Cas9_SOS2; test: ERK phosphorylation assay 2 (AlphaLISA SureFire Ultra p-ERK1/2), SOS2 knock-out; type: cell-based; conditions: Homo sapiens, NCI-H358; assay 2 (marked with *); read-out: IC50 H358 pERK
# Excerpt: ERK Phosphorylation Assay
# Materials Used for the Assay;
# [3] = Plasma protein binding (equilibrium dialysis), human plasma; type: in vitro ADME; conditions: read-out: PPB human fu
# Protocol: (§1) Plasma Protein Binding (PPB)
# (§2) Binding of test compound to plasma was determined using equilibrium dialysis (ED) and quantitative mass spectrometry interfaced with liquid chromatography (LC-MS). In brief, ED was performed with dialysis devices consisting of two chambers separated by a semipermeable membrane with a molecular weight cut-off of 5-10 kg/mol. One chamber was filled with commercially sourced plasma (mouse and human plasma, respectively) or serum (10% FCS in PBS) containing 1-10 μmol/L test compound and the other chamber was filled with phosphate-buffer saline (PBS) with or without dextran. The dialysis chamber was incubated for 3-5 hours at 37° C. After incubation, protein was precipitated from aliquots of each chamber and the concentration of test compound in the supernatant of the plasma-containing compartment (cplasma) and of the buffer-containing compartment (Cbuffer) was determined by LC-MS. The fraction of unbound test compound (not bound to plasma) (fu) was calculated according to the following equation: […]
# [4] = biological target: Ba/F3 cells bearing a KRAS G12C mutation (Homo sapiens, UniProt P01116, G12C, cells depend on it); test: Ba/F3 cell model proliferation assay (AlamarBlue, 72 h); type: cell-based
# Sequence of Ba/F3 cells bearing a KRAS G12C mutation (P01116 whole entry G12C): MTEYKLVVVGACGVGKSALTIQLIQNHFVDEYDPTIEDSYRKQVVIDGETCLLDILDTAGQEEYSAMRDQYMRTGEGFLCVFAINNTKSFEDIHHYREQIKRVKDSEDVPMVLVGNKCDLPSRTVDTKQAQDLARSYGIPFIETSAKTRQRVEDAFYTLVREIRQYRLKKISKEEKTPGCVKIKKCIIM
# Protocol: Ba/F3 Cell Model Generation and Proliferation Assay
# Plasmids containing KRASG12 mutants were obtained from GeneScript. To generate KRASG12-dependent Ba/F3 models, Ba/F3 cells were transduced with retroviruses containing vectors that harbor KRASG12 isoforms. Platinum-E cells (Cell Biolabs) were used for retrovirus packaging. Retrovirus was added to Ba/F3 cells. To ensure infection, 4 μg/mL polybrene was added and cells were spinfected. […] Cells with an infection efficiency of 10% to 20% were further cultivated and puromycin selection with 1 μg/mL was initiated. As a control, parental Ba/F3 cells were used to show selection status. Selection was considered successful when parental Ba/F3 cells cultures died. To evaluate the transforming potential of KRASG12 mutations, the growth medium was no longer supplemented with IL-3. Ba/F3 cells harboring the empty vector were used as a control. Approximately ten days before conducting the experiments, puromycin was left out.
# All treatments were performed in technical duplicates. The assay is run using a fully automated robotic system. Treated cells were incubated for 72 h at 37° C. with 5% CO2. AlamarBlue™ (ThermoFisher), a viability stain, was added and fluorescence measured in the PerkinElmer Envision HTS Multilabel Reader.
# [5] = Plasma protein binding (equilibrium dialysis), mouse plasma; type: in vitro ADME; conditions: read-out: PPB mouse fu
# Protocol: as §1, §2
# [6] = Plasma protein binding (equilibrium dialysis), serum 10% FCS in PBS; type: in vitro ADME; conditions: bovine, 10% FCS in PBS (serum), read-out: PPB 10% FCS fu
# Protocol: as §1, §2
# [7] = Ba/F3 KRAS G12C cells, 72 h, 10% FCS, uncorrected, read-out: IC50 Ba/F3 KRASG12C
# [8] = corrected by plasma protein binding in 10% FCS (fraction unbound), read-out: IC50 Ba/F3 KRASG12C (corrected)
SMILES,IC50 [1] [nM],IC50 [2] [nM],fraction unbound [3],"GI50 [4, 7] [nM]","GI50 [4, 8] [nM]",fraction unbound [5],fraction unbound [6]
C=CC(=O)N1CCC(Oc2cc(N3CCN(C)C[C@@H]3C)nc(-c3cc(C4(C)CCCc5sc(N)c(C#N)c54)on3)n2)CC1 (some centres unmarked) [Ib-8],13,12.7,0.014,13.5,2.67,0.001,0.198
C=CC(=O)N1[C@@H](C)CN(c2nc(-c3cc([C@@]4(C)CCCc5sc(N)c(C#N)c54)on3)nc(O[C@@H](C)[C@@H]3CCCN3C)c2Cl)C[C@@H]1C [Ib-9],4,11.3,0.002,2.9,0.08,0.001,0.026
C=C(F)C(=O)N1[C@@H](C)CN(c2nc(-c3cc([C@@]4(C)CCCc5sc(N)c(C#N)c54)on3)nc(O[C@@H](C)[C@@H]3CCCN3C)c2Cl)C[C@@H]1C [Ib-12],74,830,< 0.00052,67.9,1.09,< 0.0004,0.016
C=C(F)C(=O)N1CCC(Oc2cc(N3CCN(C)C[C@@H]3C)nc(-c3cc(C4(C)CCCc5sc(N)c(C#N)c54)on3)n2)CC1 (some centres unmarked) [Ib-13],278,1140,0.005,350,39.9,< 0.0005,0.114
COC/C=C/C(=O)N1CCN(c2cc(O[C@@H](C)[C@@H]3CCCN3C)nc(-c3cc(C4(C)CCCc5sc(N)c(C#N)c54)on3)n2)CC1 (some centres unmarked) [Ib-15],17,32.7,0.041,72.4,13.4,0.011,0.185
COC/C=C/C(=O)N1CCN(c2cc(O[C@@H](C)[C@@H]3CCCN3C)nc(-c3cc([C@@]4(C)CCCc5sc(N)c(C#N)c54)on3)n2)CC12CC2 [Ib-16],42,969,0.02,124,5.45,0.002,0.044
C=C(F)C(=O)N1CCN(c2cc(O[C@@H](C)[C@@H]3CCCN3C)nc(-c3cc(C4(C)CCCc5sc(N)c(C#N)c54)sn3)n2)CC1 (some centres unmarked) [Id-7],5,20.5,,5.4,,,
COC/C=C/C(=O)N1CCN(c2cc(O[C@@H](C)[C@@H]3CCCN3C)nc(-c3cc([C@@]4(C)CCCc5sc(N)c(C#N)c54)sn3)n2)CC12CC2 [Id-9],21,58.9,,44,14.8,0.003,0.336
"C=C(F)C(=O)N1CCN(c2nc(OC[C@@H]3CCCN3C)nc3c2CCN(c2cccc4cccc(Cl)c24)C3)C[C@@H]1CC#N [adagrasib, reference compound]",,,0.014,,,0.004,0.43

# The remaining lines, values ahead:
IC50 [1] [nM],IC50 [2] [nM],fraction unbound [3],"GI50 [4, 7] [nM]","GI50 [4, 8] [nM]",fraction unbound [5],fraction unbound [6],SMILES
2,3.1,,,,,,C=CC(=O)N1CCN(c2cc(-c3cc(C4(C)CCCc5sc(N)c(C#N)c54)on3)nc(O[C@@H](C)[C@@H]3CCCN3C)n2)CC1 (some centres unmarked) [Ib-2]
2,4.1,0.018,3.9,0.3,0.004,0.078,C=CC(=O)N1[C@H](C)CN(c2cc(O[C@@H](C)[C@@H]3CCCN3C)nc(-c3cc([C@@]4(C)CCCc5sc(N)c(C#N)c54)on3)n2)C[C@@H]1C [Ib-3]
1.5,0.6,0.018,0.2,0.03,0.007,0.127,C=CC(=O)N1CCC(Oc2cc(O[C@@H](C)[C@@H]3CCCN3C)nc(-c3cc([C@@]4(C)CCCc5sc(N)c(C#N)c54)on3)n2)CC1 [Ib-7]
1.6,0.5,,0.7,0.07,< 0.001,0.093,C=CC(=O)N1CCC(Oc2cc(O[C@@H](C)[C@@H]3CCCN3C)nc(-c3cc([C@@]4(C)CCCc5sc(N)c(C#N)c54)no3)n2)CC1 [Ic-6]
1.7,1.1,,< 1.3,,,,C=CC(=O)N1CCN(c2cc(-c3cc([C@@]4(C)CCCc5sc(N)c(C#N)c54)sn3)nc(O[C@@H](C)[C@@H]3CCCN3C)n2)CC1 [Id-3]
3,16.1,0.004,4.3,1.51,< 0.0009,0.352,C=C(F)C(=O)N1CCC(Oc2cc(O[C@@H](C)[C@@H]3CCCN3C)nc(-c3cc([C@@]4(C)CCCc5sc(N)c(C#N)c54)sn3)n2)CC1 [Id-8]
